In PubChem BioAssay AID1963978 (Molecular Pharmacology Branch, DTP, NCI, 2024):
“And” between values parts separate entries of the source, which are not always exact repeats. Equal entries are not always repeated.

Tested on: 616215-338-R-J1-PDC spheroids with HUVEC/MSC, viability
Test: Anticancer human tumor 616215-338-R-J1-PDC patient-derived colon adenocarcinoma cell line growth inhibition [PI3K]
Conditions: for viability, T/C: stronger effect = lower value; active means viability on the fitted dose curve at most 10% of control; inactive means the rest
Excerpt: Combinatorial screen of targeted agents with the PI3K inhibitors inavolisib, alpelisib, duvelisib, and copanlisib in multi-cell type tumor spheroids
A high-throughput screen of multi-cell type tumor spheroids was designed to identify active combinations of targeted small molecules and PI3K pathway inhibitors. Complex spheroids include a stromal component modeled by human endothelial cells (HUVEC) and fibroblasts modeled by human mesenchymal stem cells (MSCs). The concentration ranges selected for each drug and investigational agent were based upon clinically achievable concentrations if the clinical Cmax of the agent was known.
Compounds. The drugs and investigational agents: inavolisib (NSC800729), alpelisib (NSC765974), duvelisib (NSC772469), copanlisib (NSC816437), ipatasertib (NSC767898), afuresertib (NSC778305), talazoparib (NSC767125), sapanisertib (NSC764658), selumetinib (NSC741078), tovorafenib (DAY101, NSC766906), vemurafenib (NSC761431), ravoxertinib (NSC781343), sotorasib (NSC818433), MRTX1133 (NSC 836407), abemaciclib (NSC 768073), palbociclib (NSC758247), venetoclax (NSC 766270), SY5609 (NSC837396), enzalutamide (NSC755605), and darolutamide (NSC825331), were obtained from the National Cancer Institute (NCI) Developmental Therapeutics Program Chemical Repository. The FDA-approved anticancer drug set is available from the NCI Developmental Therapeutics Program. […] The stock solutions were prepared in dimethyl sulfoxide (DMSO, Sigma-Aldrich, St. Louis, MO, cat. D2650) at 800-fold the tested concentration and stored at -70 degrees C prior to their use. All drugs and investigational agents were tested over a range starting from a high concentration at or near the clinical Cmax and decreasing in half-log increments. If the clinical Cmax for an agent had not been determined, the highest concentration tested was 10 microM.
Cell Culture. All cells were maintained in an incubator at 37 degrees C and 5% CO2 with 95% humidity. The PDC lines were cultured according to standard operating procedures established by the NCI PDMR (https://pdmr.cancer.gov/sops/default.htm). All PDCs were thawed and cultured in Matrigel-coated flasks prepared with a working solution of 1X Ham's F-12 nutrient mix, without supplementation (Invitrogen, Waltham, MA, cat. 11765054), 100 U/mL penicillin-streptomycin (Invitrogen, cat. 15140122), and 2.5% Matrigel (Corning Inc., Corning, NY, cat. 354248) for the first three passages. The 354836-022-R-J1-PDC, 475296-252-R-J1-PDC, and 997726-040-R-J2-PDC lines were cultured in 6A media, which includes advanced DMEM/F-12 (Thermo Fisher Scientific, cat. 12634028), 10 mM HEPES (Thermo Fisher Scientific, cat. 15630080), 1X GlutaMAX supplement (Thermo Fisher Scientific, cat. 35050061), 0.1 mg/mL primocin (InvivoGen, San Diego, CA, cat. ant-pm-2), 10% defined fetal bovine serum, heat inactivated (HyClone Laboratories Inc., Logan, UT, cat. SH30070.03HI), 50% L-WRN conditioned media (ATCC, cat. CRL-3276), 1.25 mM N-Acetyl-L-cysteine (Sigma-Aldrich, cat. A9165), 10 mM nicotinamide (Sigma-Aldrich, cat. N0636), 1X B-27 supplement (Thermo Fisher Scientific, cat. 17504044), 1X N-2 supplement (Thermo Fisher Scientific, cat. 17502048), and 10 microM Y-27632 dihydrochloride (Tocris Bioscience, Bristol, United Kingdom, cat. 1254). The 624824-186-R-J2-PDC line was cultured in 6C/Colon 1B media, which includes all 6A media components plus 50 ng/mL human EGF recombinant protein (Thermo Fisher Scientific, cat. PHG0311). […]

[1] = curve of first compound, second compound 0.0316 µM
[2] = curve of first compound, second compound 0.1 µM
[3] = curve of first compound, second compound 0.316 µM
[4] = curve of first compound, second compound 1 µM
[5] = second compound 0.0316 µM, first compound 0.0316 µM
[6] = second compound 0.0316 µM, first compound 0.1 µM
[7] = second compound 0.1 µM, first compound 0.0316 µM
[8] = second compound 0.1 µM, first compound 0.1 µM
[9] = second compound 0.316 µM, first compound 0.0316 µM
[10] = second compound 0.316 µM, first compound 0.1 µM
[11] = second compound 1 µM, first compound 0.0316 µM
[12] = second compound 1 µM, first compound 0.1 µM
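Further: spheroids exposed to agents for seven days before the viability read.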

CC(C)NCC(C(=O)N1CCN(c2ncnc3c2C(C)CC3O)CC1)c1ccc(Cl)cc1 (configuration not stated) + COc1c(OCCCN2CCOCC2)ccc2c3n(c(=NC(=O)c4cnc(N)nc4)nc12)CCN3
4.67 µM: IC50 (curve of first compound, second compound 0.00316 µM)
1.64 µM: IC50 [2]
4 µM: IC50 (curve of first compound, second compound 0.01 µM)
inactive: viability, T/C (second compound 0.00316 µM, first compound 0.0316 µM) 87.4% | viability, T/C (second compound 0.00316 µM, first compound 0.1 µM) 92.8% | viability, T/C (second compound 0.00316 µM, first compound 0.316 µM) 92.9% | viability, T/C (second compound 0.00316 µM, first compound 1 µM) 97% | viability, T/C (second compound 0.00316 µM, first compound 3.16 µM) 64.3% | viability, T/C (second compound 0.00316 µM, first compound 10 µM) 22.1% | viability, T/C (second compound 0.01 µM, first compound 0.0316 µM) 93.1% | viability, T/C (second compound 0.01 µM, first compound 0.1 µM) 99.6% | viability, T/C (second compound 0.01 µM, first compound 0.316 µM) 100% | viability, T/C (second compound 0.01 µM, first compound 1 µM) 103% | viability, T/C (second compound 0.01 µM, first compound 3.16 µM) 57.2% | viability, T/C (second compound 0.01 µM, first compound 10 µM) 21.4% | viability, T/C [5] 96.8% | viability, T/C [6] 102% | viability, T/C (second compound 0.0316 µM, first compound 0.316 µM) 93.6% | viability, T/C (second compound 0.0316 µM, first compound 1 µM) 94.4% | viability, T/C (second compound 0.0316 µM, first compound 3.16 µM) 40.1% | viability, T/C (second compound 0.0316 µM, first compound 10 µM) 23.7% | viability, T/C [7] 98.8% | viability, T/C [8] 84.4% | viability, T/C (second compound 0.1 µM, first compound 0.316 µM) 80.3% | viability, T/C (second compound 0.1 µM, first compound 1 µM) 55.7% | viability, T/C (second compound 0.1 µM, first compound 3.16 µM) 39.6% | viability, T/C (second compound 0.1 µM, first compound 10 µM) 18.5% | viability, T/C [9] 38.3% | viability, T/C [10] 37.1% | viability, T/C (second compound 0.316 µM, first compound 0.316 µM) 33.3% | viability, T/C (second compound 0.316 µM, first compound 1 µM) 30.3% | viability, T/C (second compound 0.316 µM, first compound 3.16 µM) 28.2% | viability, T/C (second compound 0.316 µM, first compound 10 µM) 17% | viability, T/C [11] 24.8% | viability, T/C [12] 21.8% | viability, T/C (second compound 1 µM, first compound 0.316 µM) 22.1% | viability, T/C (second compound 1 µM, first compound 1 µM) 20.9% | viability, T/C (second compound 1 µM, first compound 3.16 µM) 20.7% | viability, T/C (second compound 1 µM, first compound 10 µM) 14.1%
< 0.0316 µM: IC50 [3] | IC50 [4]
2.56 µM: IC50 [1]

Cn1ncc(Cl)c1-c1cc(C(=O)NC(CN)Cc2cccc(F)c2)sc1Cl (configuration not stated)
inactive: viability, T/C (compound 0.0316 µM) 94% [middle of 4 runs] | viability, T/C (compound 0.1 µM) 97.8% [middle of 4 runs] | viability, T/C (compound 0.316 µM) 96.6% [middle of 4 runs] | viability, T/C (compound 1 µM) 97.7% [middle of 4 runs] | viability, T/C (compound 10 µM) 35.6% [middle of 4 runs]
6.53 µM [middle of 4 runs]: IC50 (curve of compound)

CC(=O)c1c(C)c2cnc(Nc3ccc(N4CCNCC4)cn3)nc2n(C2CCCC2)c1=O + CC(Nc1ncnc2nc[nH]c12)c1cc2cccc(Cl)c2c(=O)n1-c1ccccc1
> 0.1 µM: IC50 [1] | IC50 [2] | IC50 [3] | IC50 [4] | IC50 (curve of first compound, second compound 3.16 µM) | IC50 (curve of first compound, second compound 10 µM)
inactive: viability, T/C (second compound 0.0316 µM, first compound 0.000316 µM) 106% | viability, T/C (second compound 0.0316 µM, first compound 0.001 µM) 104% | viability, T/C (second compound 0.0316 µM, first compound 0.00316 µM) 93.2% | viability, T/C (second compound 0.0316 µM, first compound 0.01 µM) 93.3% | viability, T/C [5] 92.5% | viability, T/C [6] 102% | viability, T/C (second compound 0.1 µM, first compound 0.000316 µM) 98.7% | viability, T/C (second compound 0.1 µM, first compound 0.001 µM) 105% | viability, T/C (second compound 0.1 µM, first compound 0.00316 µM) 99.6% | viability, T/C (second compound 0.1 µM, first compound 0.01 µM) 106% | viability, T/C [7] 104% | viability, T/C [8] 118% | viability, T/C (second compound 0.316 µM, first compound 0.000316 µM) 110% | viability, T/C (second compound 0.316 µM, first compound 0.001 µM) 95.2% | viability, T/C (second compound 0.316 µM, first compound 0.00316 µM) 98.4% | viability, T/C (second compound 0.316 µM, first compound 0.01 µM) 92.3% | viability, T/C [9] 106% | viability, T/C [10] 114% | viability, T/C (second compound 1 µM, first compound 0.000316 µM) 98.2% | viability, T/C (second compound 1 µM, first compound 0.001 µM) 104% | viability, T/C (second compound 1 µM, first compound 0.00316 µM) 99.5% | viability, T/C (second compound 1 µM, first compound 0.01 µM) 107% | viability, T/C [11] 113% | viability, T/C [12] 110% | viability, T/C (second compound 3.16 µM, first compound 0.000316 µM) 115% | viability, T/C (second compound 3.16 µM, first compound 0.001 µM) 88.1% | viability, T/C (second compound 3.16 µM, first compound 0.00316 µM) 99.2% | viability, T/C (second compound 3.16 µM, first compound 0.01 µM) 112% | viability, T/C (second compound 3.16 µM, first compound 0.0316 µM) 101% | viability, T/C (second compound 3.16 µM, first compound 0.1 µM) 103% | viability, T/C (second compound 10 µM, first compound 0.000316 µM) 97.8% | viability, T/C (second compound 10 µM, first compound 0.001 µM) 94% | viability, T/C (second compound 10 µM, first compound 0.00316 µM) 122% | viability, T/C (second compound 10 µM, first compound 0.01 µM) 118% | viability, T/C (second compound 10 µM, first compound 0.0316 µM) 104% | viability, T/C (second compound 10 µM, first compound 0.1 µM) 90.9%

CNC(=O)c1ccc(N2C(=S)N(c3ccc(C#N)c(C(F)(F)F)c3)C(=O)C2(C)C)cc1F
inactive: viability, T/C (compound 0.0316 µM) 100% [middle of 4 runs] | viability, T/C (compound 0.1 µM) 102% [middle of 4 runs] | viability, T/C (compound 0.316 µM) 100% [middle of 4 runs] | viability, T/C (compound 1 µM) 93.9% and 100% and 102% | viability, T/C (compound 3.16 µM) 101% [middle of 4 runs] | viability, T/C (compound 10 µM) 104% [middle of 4 runs]
> 10 µM: IC50 (curve of compound)
